From patent US9181193B2, “Indenoquinolone compound, preparation method and use thereof” (Second Military Medical University, PLA, priority 2010, dated 2015)

Experiments:
[1] = test system: MDA-MB-435 (human breast cancer cells); test: MTT in vitro anti-tumor activity test, MDA-MB-435; type: cell-based
[2] = test system: A549 (human lung cancer cells); test: MTT in vitro anti-tumor activity test, A549; type: cell-based
[3] = test system: human lung cancer cell line A549; test: Anti-tumor activity test in vivo, nude mouse model of A549; details: nude mouse model of A549, dose of 1-200 mg/kg weight
From the text: The activities of some compounds in vivo in the nude mouse model of human lung cancer cell line A549 were detected by using literature methods (WEI Hong. Medical Experiments Zoology. 2nd edition. Chengdu: Sichuan Science and Technology Press, 2001: 595-596).

[4] = test system: HepG2 (human hepatoma cells); test: MTT in vitro anti-tumor activity test, HepG2; type: cell-based
[5] = test system: Colo205 (human colon cancer cells); test: MTT in vitro anti-tumor activity test, Colo205; type: cell-based
[6] = MDA-MB-435, 100 μg/mL, MTT, 72 h
[7] = MDA-MB-435 human breast cancer cells, MTT, 72 h
[8] = A549 human lung cancer cells, MTT, 72 h
[9] = HepG2 human hepatoma cells, MTT, 72 h
[10] = Colo205 human colon cancer cells, MTT, 72 h
[11] = MTT assay, 72 h incubation, MDA-MB-435 cells
[12] = inhibition at 100 μg/mL, MTT assay, 72 h, MDA-MB-435 cells
[13] = MTT assay, 72 h incubation, A549 cells
[14] = inhibition at 100 μg/mL, MTT assay, 72 h, A549 cells
[15] = MTT assay, 72 h incubation, HepG2 cells
[16] = inhibition at 100 μg/mL, MTT assay, 72 h, HepG2 cells
[17] = MTT assay, 72 h incubation, Colo205 cells
[18] = inhibition at 100 μg/mL, MTT assay, 72 h, Colo205 cells

| MDA-MB-435 IC50 [1, 7] | A549 IC50 [2, 8] | HepG2 IC50 [4, 9] | Colo205 IC50 [5, 10] | MDA-MB-435 IC50 [1, 11] | A549 IC50 [2, 13] | HepG2 IC50 [4, 15] | Colo205 IC50 [5, 17] | SMILES | MDA-MB-435 100 μg/mL IC % [1, 6] | A549 100 μg/mL IC % ([2]; A549, 100 μg/mL, MTT, 72 h) | anti-tumor activity in vivo [3] | HepG2 100 μg/mL IC % ([4]; HepG2, 100 μg/mL, MTT, 72 h) | Colo205 100 μg/mL IC % ([5]; Colo205, 100 μg/mL, MTT, 72 h) | MDA-MB-435 100 μg/mL IC % [1, 12] | A549 100 μg/mL IC % [2, 14] | HepG2 100 μg/mL IC % [4, 16] | Colo205 100 μg/mL IC % [5, 18] |
| --- | --- | --- | --- | --- | --- | --- | --- | --- | --- | --- | --- | --- | --- | --- | --- | --- | --- |
| 3.64 mg/L | 1.14 mg/L | 2.17 mg/L | 0.719 mg/L | – | – | – | – | COc1ccc2c(c1)C(=O)c1c-2c(OCCCN(C)C)nc2ccccc12 [Compound 6] | 100% | 100% | good anti-tumor activity in vivo | 98.33% | 100% | – | – | – | – |
| 1.29 mg/L | 6.11 mg/L | 0.552 mg/L | 0.580 mg/L | – | – | – | – | CCN(CC)CCOc1nc2ccc(OC)cc2c2c1-c1ccc(OC)cc1C2=O [Compound 14] | 99.95% | 100% | good anti-tumor activity in vivo | 100% | 97.47% | – | – | – | – |
| – | – | – | – | 0.267 mg/L | 12.52 mg/L | 12.02 mg/L | 22.18 mg/L | COc1ccc2c(c1)C(=O)c1c-2c(=O)n(CCCN(C)C)c2cc(OC)c(OC)cc12 [Compound 46] | – | – | good anti-tumor activity in vivo | – | – | 85.86% | 68.78% | 90.77% | 87.44% |
| 42.24 mg/L | >100 mg/L | >100 mg/L | 18.70 mg/L | – | – | – | – | COc1ccc2nc(OCCn3ccnc3)c3c(c2c1)C(=O)c1cc(Br)ccc1-3 [Compound 19] | 59.37% | 17.66% | – | 37.50% | 80.89% | – | – | – | – |
| 10.51 mg/L | 6.89 mg/L | 11.27 mg/L | 1.45 mg/L | – | – | – | – | COc1cc2nc(OCCN(C)C)c3c(c2cc1OC)C(=O)c1cc(Cl)ccc1-3 [Compound 26] | 100% | 100% | – | 97.91% | 100% | – | – | – | – |
| 1.99 mg/L | 1.53 mg/L | 2.50 mg/L | 0.427 mg/L | – | – | – | – | CCN(CC)CCOc1nc2ccccc2c2c1-c1ccc(OC)cc1C2=O [Compound 2] | 100% | 100% | – | 100% | 100% | – | – | – | – |
| 1.17 mg/L | 1.68 mg/L | 0.700 mg/L | 2.56 mg/L | – | – | – | – | CCN(CC)CCOc1nc2cc(OC)c(OC)cc2c2c1-c1ccc(OC)cc1C2=O [Compound 21] | 93.41% | 100% | – | 93.16% | 88.97% | – | – | – | – |
| – | – | – | – | >100 mg/L | >100 mg/L | 21.05 mg/L | 69.03 mg/L | COc1cc2c3c(c(=O)n(CCN4CCOCC4)c2cc1OC)-c1ccc(Cl)cc1C3=O [Compound 49] | – | – | – | – | – | 48.01% | 28.48% | 59.34% | 50.06% |
| 1.85 mg/L | 1.43 mg/L | 8.61 mg/L | 1.30 mg/L | – | – | – | – | COc1ccc2c(c1)C(=O)c1c-2c(OCCN2CCCC2)nc2cc(OC)c(OC)cc12 [Compound 22] | 100% | 97.05% | – | 81.69% | 93.84% | – | – | – | – |
| >100 mg/L | >100 mg/L | >100 mg/L | >100 mg/L | – | – | – | – | COc1ccc2c(c1)C(=O)c1c-2c(OCCBr)nc2ccccc12 [Compound 30] | 31.90% | 19.48% | – | 0% | 21.11% | – | – | – | – |
| – | – | – | – | 41.01 mg/L | 58.58 mg/L | >100 mg/L | 36.76 mg/L | O=C1c2cc(Cl)ccc2-c2c1c1ccccc1n(CCN1CCCC1)c2=O [Compound 37] | – | – | – | – | – | 70.26% | 61.64% | 24.95% | 69.37% |
| >100 mg/L | 16.61 mg/L | >100 mg/L | 13.51 mg/L | – | – | – | – | COc1ccc2c(c1)C(=O)c1c-2c(OCCn2ccnc2)nc2ccccc12 [Compound 4] | 48.21% | 78.34% | – | 34.87% | 60.32% | – | – | – | – |
| 91.52 mg/L | >100 mg/L | 56.61 mg/L | 25.50 mg/L | – | – | – | – | COc1cc2nc(OCCn3ccnc3)c3c(c2cc1OC)C(=O)c1cc(Cl)ccc1-3 [Compound 27] | 51.23% | 35.12% | – | 57.51% | 66.27% | – | – | – | – |
| – | – | – | – | 12.36 mg/L | 23.76 mg/L | 60.46 mg/L | 11.75 mg/L | COc1cc2c3c(c(=O)n(CCn4ccnc4)c2cc1OC)-c1ccc(Cl)cc1C3=O [Compound 48] | – | – | – | – | – | 100% | 79.61% | 62.67% | 89.59% |
| – | – | – | – | >100 mg/L | >100 mg/L | >100 mg/L | >100 mg/L | COc1ccc2c(c1)C(=O)c1c-2c(=O)n(CCN2CCOCC2)c2ccccc12 [Compound 33] | – | – | – | – | – | 27.19% | 40.55% | 4.57% | 29.31% |
| 0.585 mg/L | 3.04 mg/L | 3.19 mg/L | 1.16 mg/L | – | – | – | – | CN(C)CCCOc1nc2ccccc2c2c1-c1ccc(Cl)cc1C2=O [Compound 12] | 100% | 88.18% | – | 100% | 100% | – | – | – | – |
| – | – | – | – | 0.703 mg/L | ≈100 μg/mL | 3.36 mg/L | 0.632 mg/L | COc1ccc2c(c1)C(=O)c1c-2c(=O)n(CCN(C)C)c2ccc(OC)cc12 [Compound 41] | – | – | – | – | – | 77.77% | 49.27% | 85.01% | 83.62% |

| SMILES | MDA-MB-435 IC50 [1, 7] | A549 IC50 [2, 8] | HepG2 IC50 [4, 9] | Colo205 IC50 [5, 10] | MDA-MB-435 IC50 [1, 11] | A549 IC50 [2, 13] | HepG2 IC50 [4, 15] | Colo205 IC50 [5, 17] | MDA-MB-435 100 μg/mL IC % [1, 6] | A549 100 μg/mL IC % ([2]; A549, 100 μg/mL, MTT, 72 h) | anti-tumor activity in vivo [3] | HepG2 100 μg/mL IC % ([4]; HepG2, 100 μg/mL, MTT, 72 h) | Colo205 100 μg/mL IC % ([5]; Colo205, 100 μg/mL, MTT, 72 h) | MDA-MB-435 100 μg/mL IC % [1, 12] | A549 100 μg/mL IC % [2, 14] | HepG2 100 μg/mL IC % [4, 16] | Colo205 100 μg/mL IC % [5, 18] |
| --- | --- | --- | --- | --- | --- | --- | --- | --- | --- | --- | --- | --- | --- | --- | --- | --- | --- |
| COc1ccc2c(c1)C(=O)c1c-2c(OCCN(C)C)nc2cc(OC)c(OC)cc12 [Compound 20] | 0.99 mg/L | 13.78 mg/L | 1.28 mg/L | 0.606 mg/L | – | – | – | – | 99.28% | 100% | good anti-tumor activity in vivo | 99.17% | 93.79% | – | – | – | – |
